Experimental data reported in patent US7071344B1, “Vitamin D derivatives with cyclopropyl rings in the lateral chains, a method and intermediate products for the production thereof and the utilization thereof for producing medicaments” (Schering AG, priority 1997, dated 2006).

Columns and labels:
calcitriol receptor = target: T1, calcitriol receptor (Sus scrofa, UniProt A3RGC1); assay: calcitriol-receptor test (competition with 3H-calcitriol); conditions: competition factor = concentration of test substance / concentration of calcitriol at 50% competition; protein extract from intestines of juvenile pigs
T1 sequence (A3RGC1 1-427): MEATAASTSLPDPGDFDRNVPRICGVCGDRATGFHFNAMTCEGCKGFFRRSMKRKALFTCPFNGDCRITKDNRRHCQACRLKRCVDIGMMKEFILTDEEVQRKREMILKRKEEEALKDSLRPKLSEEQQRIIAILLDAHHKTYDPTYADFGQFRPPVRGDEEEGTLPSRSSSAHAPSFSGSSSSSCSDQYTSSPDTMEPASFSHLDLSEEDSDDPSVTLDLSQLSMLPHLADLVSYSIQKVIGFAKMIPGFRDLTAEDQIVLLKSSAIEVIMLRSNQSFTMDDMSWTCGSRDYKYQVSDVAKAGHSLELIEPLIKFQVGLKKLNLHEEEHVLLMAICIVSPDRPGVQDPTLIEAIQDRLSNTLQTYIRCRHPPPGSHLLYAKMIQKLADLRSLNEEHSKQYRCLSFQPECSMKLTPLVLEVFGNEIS
Method: The vitamin D activity of the substances according to the invention is determined with the aid of the calcitriol-receptor test. It is carried out using a protein extract from the intestines of juvenile pigs.
Then, the samples are centrifuged at 10,000 g for 5 minutes at 4° C. The supernatant is decanted and measured in a β-counter after 1 hour of equilibration in Picofluor 15™.
The competition curves that are obtained at various concentrations of test substance as well as of reference substance (unlabeled calcitriol) at constant concentration of the reference substance (^3H-calcitriol) are placed in relation to one another, and a competition factor (KF) is determined.
It is defined as a quotient of the concentrations of the respective test substance and the reference substance, which are necessary for 50% competition:

[1] = metabolic stability in liver homogenate; type: in vitro ADME; conditions: half-life in the liver homogenate (rat)
Method: To determine the metabolic stability, the test substance is incubated with tissue homogenate (from the rat liver) in the presence of buffer systems. The drop in starting concentration is tracked as a function of time. After a certain time, the incubation is stopped, and the unaltered test substance is extracted from the homogenate (diethyl ether), concentrated by evaporation under nitrogen, isolated via HPLC (mobile solvent: acetonitrile/water) and detected using UV-absorption.

[2] = acute hypercalcemic action (serum-calcium) in rats; type: in vivo, rat; conditions: dose ratio test substance/calcitriol for comparable hypercalcemic action; one-time subcutaneous administration, male rats
Method: To determine the acute hypercalcemic action of various calcitriol derivatives, the test that is described below is carried out:
The action of control (solution base), reference substance (1,25-dihydroxy vitamin D3=calcitriol) and test substance is tested in each case after one-time subcutaneous administration in groups of 10 healthy male rats (140–170 g). During the testing time, the rats are kept in special cages to determine the excretion of water and mineral substances. Urine is collected in 2 fractions (0–16 hours and 16–22 hours). An oral dose of calcium (0.1 mmol of calcium in 6.5% alpha-hydroxypropylcellulose, 5 ml/animal) replaces at 1600 hours the calcium intake that is lacking by food deprivation. At the end of the test, the animals are killed by decapitation and exsanguinated to determine the serum-calcium values. For the primary screen test in vivo, an individual standard dose (200 μg/kg) is tested. For selected substances, the result is supported by establishing a dose-effect relation.
A hypercalcemic action is shown in serum-calcium level values that are higher than in the control.
The significance of differences between substance groups and controls and between test substance and reference substance are supported with suitable statistical processes.

HL 60 cells = assay: differentiation induction of HL 60 cells to macrophages (NBT reduction); type: cell-based, human; conditions: dose ratio test substance/calcitriol for comparable semi-maximum differentiation induction; 96 hours incubation
Method: The differentiation-stimulating action of calcitriol analogues is also detected quantitatively.
It is known in the literature [Mangelsdorf, D. J. et al., J. Cell. Biol. 98: 391 (1984)] that the treatment of human leukemia cells (promyelocyte cell line HL 60) in vitro with calcitriol induces the differentiation of cells to macrophages.
HL 60 cells are cultivated in tissue culture medium (RPMI 10% fetal calf serum) at 37° C. in an atmosphere of 5% CO2 in air.
For substance testing, the cells are centrifuged off, and 2.0×10^5 cells/ml in phenol red-free tissue culture medium is taken up. The test substances are dissolved in ethanol and diluted with tissue culture medium without phenol red to the desired concentration. The dilution stages are mixed with the cell suspension at a ratio of 1:10, and 100 μl each of this cell suspension that is mixed with substance is pipetted into an indentation of a 96-hole plate. For control, a cell suspension is mixed analogously with the solvent.
After incubation for 96 hours at 37° C. in 5% CO2 in air, 100 μl of an NBT-TPA solution (nitro blue tetrazolium (NBT), final concentration in the batch of 1 mg/ml, tetradecanoyl phorbolmyristate-13-acetate (TPA), final concentration in the batch of 2×10^−7 mol/l) is pipetted into each indentation of the 96-hole plate in the cell suspension.
By incubation for 2 hours at 37° C. and 5% CO2 in air, NBT is reduced to insoluble formazan because of the intracellular oxygen radical release, stimulated by TPA, in the cells that are differentiated to macrophages.
To complete the reaction, the indentations of the 96-hole plate are suctioned off, and the cells are affixed to the bottom of the plate by adding methanol and dried after affixing. To dissolve the intracellular formazan crystals that are formed, 100 μl of potassium hydroxide (2 mol/l) and 100 μl of dimethyl sulfoxide are pipetted into each indentation and ultrasonically treated for 1 minute. The concentration of formazan is measured by spectrophotometry at 650 nm.
As a yardstick for the differentiation induction of HL 60 cells to macrophages, the concentration of formed formazan applies.

Row | SMILES | KF (calcitriol receptor) | T½ [1] [h] | DR Ca [2] | DR HL 60 (HL 60 cells) | half-life ([1]; read-out: T½) [h]
1 | C=C1/C(=C\C=C2/CCC[C@]3(C)[C@@H]([C@H](C)/C=C/CC4(C(C)=O)CC4)CC[C@@H]23)C[C@@H](O)C[C@@H]1O [Compound 66, (5Z,7E,22E)-(1S,3R)-25-Acetyl-26,27-cyclo-9,10-secocholesta-5,7,10(19),22-tetraene-1,3-diol] | 10 | 1.83 | 30 | 0.5 | 
2 | C=C1/C(=C\C=C2/CCC[C@]3(C)[C@@H]([C@H](C)/C=C/CC4(C(=O)CCC)CC4)CC[C@@H]23)C[C@@H](O)C[C@@H]1O [Compound 71, (5Z,7E,22E)-(1S,3R)-25-(1-Oxobutyl)-26,27-cyclo-9,10-secocholesta-5,7,10(19),22-tetraene-1,3-diol] | 9 | 2 | 100 | 1.7 | 
3 | C=C1/C(=C\C=C2/CCC[C@]3(C)[C@@H]([C@H](C)/C=C/CC4(C(=O)CCCC)CC4)CC[C@@H]23)C[C@@H](O)C[C@@H]1O [Compound 76, (5Z,7E,22E)-(1S,3R)-25-(1-Oxopentyl)-26,27-cyclo-9,10-secocholesta-5,7,10(19),22-tetraene-1,3-diol] | 7 | >2 | >100 | 19 | 
4 | C=C1C(=CC=C2CCCC3(C)C2CCC3C(C)C=CCC2(C(=O)CCCCC)CC2)CC(O)CC1O [Compound 81, (5Z,7E,22E)-(1S,3R)-25-(1-Oxohexyl)-26,27-cyclo-9,10-secocholesta-5,7,10(19),22-tetraene-1,3-diol] | 40 | >2 | >>300 | 9 | 
5 | C=C1/C(=C\C=C2/CCC[C@]3(C)[C@@H]([C@H](C)/C=C/CCC4(C(C)=O)CC4)CC[C@@H]23)C[C@@H](O)C[C@@H]1O [Compound 126, (5Z,7E,22E)-(1S,3R)-25-Acetyl-26,27-cyclo-24a-homo-9,10-secocholesta-5,7,10(19),22-tetraene-1,3-diol] | 5 | 2 | 20 | 0.5 | 
6 | C=C1/C(=C\C=C2/CCC[C@]3(C)[C@@H]([C@H](C)[C@@H](O)CCCC4(C(C)=O)CC4)CC[C@@H]23)C[C@@H](O)C[C@@H]1O [Compound 127, (5Z,7E)-(1S,3R,22S)-25-Acetyl-26,27-cyclo-24a-homo-9,10-secocholesta-5,7,10(19)-triene-1,3,22-triol] | 30 | 2 | >100 | 4 | 
7 | C=C1C(=CC=C2CCCC3(C)C2CCC3C(C)C=CCCC2(C(=O)CCC)CC2)CC(O)CC1O [Compound 131, (5Z,7E,22E)-(1S,3R)-25-(1-oxobutyl)-26,27-cyclo-24a-homo-9,10-secocholesta-5,7,10(19) ,22-tetraene-1,3-diol] | 10 | 2 | 30 | 0.2 | 
8 | C=C1C(=CC=C2CCCC3(C)C2CCC3C(C)C(O)CCCC2(C(=O)CCC)CC2)CC(O)CC1O [Compound 132, (5Z,7E)-(1S,3R,22S)-25-(1-Oxobutyl)-26,27-cyclo-24a-homo-9,10-secocholesta-5,7,10(19)-triene-1,3,22-triol] | 20 | 1.67 | >100 | 2 | 
9 | C=C1C(=CC=C2CCCC3(C)C2CCC3C(C)C=CCCC2(C(=O)CCCC)CC2)CC(O)CC1O [Compound 136, (5Z,7E,22E)-(1S,3R)-25-(1-Oxopentyl)-26,27-cyclo-24a-homo-9,10-secocholesta-5,7,10(19),22-tetraene-1,3-diol] | 10 | >2 | >100 | 17 | 
10 | C=C1/C(=C\C=C2/CCC[C@]3(C)[C@@H]([C@H](C)/C=C/[C@@H](O)CCC4(C(C)=O)CC4)CC[C@@H]23)C[C@@H](O)C[C@@H]1O [Compound 168b, (5Z,7E,22E)-(1S,3R,24S)-25-acetyl-26,27-cyclo-24a,24b-dihomo-9,10-secocholesta-5,7,10(19),22-tetraene-1,3,24-triol] | 3 | 2 | >100 | 7 | 
11 | C=C1/C(=C\C=C2/CCC[C@]3(C)[C@@H]([C@H](C)/C=C/[C@@H](O)CCC4(C(=O)CCC)CC4)CC[C@@H]23)C[C@@H](O)C[C@@H]1O [Compound 175b, (5Z,7E,22E)-(1S,3R,24S)-25-(1-oxobutyl)-26,27-cyclo-24a,24b-dihomo-9,10-secocholesta-5,7,10(19),22-tetraene-1,3,24-triol] | 1 | 1.5 | >100 | 3 | 
12 | C=C1/C(=C\C=C2/CCC[C@]3(C)[C@@H]([C@H](C)/C=C/[C@@H](O)CCC4(C(=O)CCCC)CC4)CC[C@@H]23)C[C@@H](O)C[C@@H]1O [Compound 182b, (5Z,7E,22E)-(1S,3R,24S)-25-(1-oxopentyl)-26,27-cyclo-24a,24b-dihomo-9,10-secocholesta-5,7,10(19) ,22-tetraene-1,3,24-triol] | 2 | 1.67 | >100 | 18 | 
13 | C=C1/C(=C\C=C2/CCC[C@]3(C)[C@@H]([C@H](C)/C=C/[C@H](O)C4(CC)CC4)CC[C@@H]23)C[C@@H](O)C[C@@H]1O [Compound 214a, (5Z,7E,22E)-(1S,3R,24S)-25-Ethyl-26,27-cyclo-9,10-secocholesta-5,7,10(19),22-tetraene-1,3,24-triol] | 3 | 1.33 | >>1 | 1.5 | 
14 | C=C1/C(=C\C=C2/CCC[C@]3(C)[C@@H]([C@H](C)/C=C/[C@@H](O)C4(CC)CC4)CC[C@@H]23)C[C@@H](O)C[C@@H]1O [Compound 214b, (5Z,7E,22E)-(1S,3R,24R)-25-ethyl-26,27-cyclo-9,10-secocholesta-5,7,10(19),22-tetraene-1,3,24-triol] | 1 | 1.67 | >1 | 0.1 | 
15 | C=C1/C(=C\C=C2/CCC[C@]3(C)[C@@H]([C@H](C)/C=C/[C@@H](O)C4(/C=C/CC)CC4)CC[C@@H]23)C[C@@H](O)C[C@@H]1O [Compound 221b, [5Z,7E,22E,25(E)]-(1S,3R,24R)-25-(1-butenyl)-26,27-cyclo-9,10-secocholesta-5,7,10(19),22-tetraene-1,3,24-triol] | 2 | 1.5 | 10 | 0.1 | 
16 | C=C1/C(=C\C=C2/CCC[C@]3(C)[C@@H]([C@H](C)CCCC(C)(C)O)CC[C@@H]23)C[C@@H](O)C[C@@H]1O [calcitriol, 1α,25-dihydroxy vitamin D3, reference compound] |  |  | 1 | 1 | 2
